Source: patent US20250339566A1, “INHIBITORS OF FIBROBLAST ACTIVATION PROTEIN” (UNIVERSITEIT ANTWERPEN, priority 2022, published 2025)

How the values were obtained:
Assay type in all cases: biochemical
human FAP = target: T1, human FAP (Homo sapiens, UniProt Q12884); assay: FAP IC50 measurement (Z-Gly-Pro-AMC); conditions: Z-Gly-Pro-AMC 50 μM, pH 8, 15 min pre-incubation
T1 construct: the human secretion signal was replaced with the HoneyBee mellitin secretion signal; honeybee melittin secretion signal (replaces the native signal) (N); made in house; host or cells: Sf9 insect cells (baculovirus), purified from supernatant
T1 sequence (Q12884 26-760 limits assumed): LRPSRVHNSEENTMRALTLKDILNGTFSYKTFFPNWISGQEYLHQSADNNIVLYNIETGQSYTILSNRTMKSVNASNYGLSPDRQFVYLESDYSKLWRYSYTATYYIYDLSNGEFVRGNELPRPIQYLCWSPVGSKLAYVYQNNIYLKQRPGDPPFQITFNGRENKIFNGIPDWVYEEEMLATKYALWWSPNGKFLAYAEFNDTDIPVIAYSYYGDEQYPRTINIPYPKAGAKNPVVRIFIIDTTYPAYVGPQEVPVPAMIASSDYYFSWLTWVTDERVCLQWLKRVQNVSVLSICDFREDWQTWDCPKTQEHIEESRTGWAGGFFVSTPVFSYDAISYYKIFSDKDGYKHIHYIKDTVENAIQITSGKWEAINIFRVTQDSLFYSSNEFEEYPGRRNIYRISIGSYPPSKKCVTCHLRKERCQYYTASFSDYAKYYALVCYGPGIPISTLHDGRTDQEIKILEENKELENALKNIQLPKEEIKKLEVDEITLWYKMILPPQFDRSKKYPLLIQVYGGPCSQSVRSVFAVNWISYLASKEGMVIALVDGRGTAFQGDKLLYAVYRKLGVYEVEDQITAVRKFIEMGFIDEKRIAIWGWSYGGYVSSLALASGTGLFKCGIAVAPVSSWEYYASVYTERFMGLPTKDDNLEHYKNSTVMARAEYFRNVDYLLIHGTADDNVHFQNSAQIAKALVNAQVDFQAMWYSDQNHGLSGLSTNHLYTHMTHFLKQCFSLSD
From the text: (§1) Used Enzymes in these Assays: • A gateway-entry clone for human FAP was purchased from Dharmacon (Accession number DQ891423) and the human secretion signal was replaced with the HoneyBee mellitin secretion signal. For transfection and expression of FAP in Sf9 insect cells the C-terminal BaculoDirect kit from LifeTechnologies was used. The enzyme was purified from the supernatant of the insect cells using immobilized Ni-chelating chromatography (GE healthcare, Diegem, Belgium), followed by anion-exchange chromatography using a 1 mL HiTrap Q and size exclusion chromatography using the Superdex 200 column (GE healthcare, Diegem, Belgium). • Human recombinant PREP was expressed in BL21(DE3) cells and purified using immobilized Co-chelating chromatography (GE healthcare), followed by anion-exchange chromatography on a 1 ml Mono Q column (GE healthcare). • DPP4 was purified from human seminal plasma. • Gateway-entry clones for human DPP8 and DPP9 were purchased from Dharmacon (Accession numbers DQ891733 and DQ892325 respectively). For transfection and expression of DPP8 and DPP9 in Sf9 insect cells the N-terminal BaculoDirect kit from LifeTechnologies was used. The enzymes were purified using immobilized Ni-chelating chromatography (GE healthcare, Diegem, Belgium), followed by anion-exchange chromatography using a 1 mL Mono Q (GE healthcare, Diegem, Belgium). • Recombinant human DPP2 was purchased from R&D.
(§2) Eight concentrations of inhibitors/probe were tested. The final DMSO concentration was kept constant during the experiment to exclude any effects. Inhibitors were pre-incubated with the enzyme for 15 minutes at 37° C., afterwards the substrate was added and the velocities of AMC release were measured kinetically at λex=380 nm, λem=465 nm for at least 10 minutes at 37° C. […] Eight concentrations of inhibitors were tested. The final DMSO concentration in kept constant during the experiment to exclude any effects. Inhibitors were pre-incubated with the enzyme for 15 minutes at 37° C., afterwards the substrate was added and the velocities of AMC release were measured kinetically at λex=380 nm, λem=465 nm for at least 10 minutes at 37° C. […] At least eight different inhibitor concentrations were used. The final DMSO concentration is kept constant during the experiment to exclude any effects. Inhibitors were pre-incubated with the enzyme for 15 minutes at 37° C., afterwards the substrate was added and the velocities of pNA release were measured kinetically at 405 nm for at least 10 minutes at 37° C. Measurements were done on the Infinite 200 (Tecan Group Ltd.) and the Magellan software was used to process the data. • For DPP2: Initial velocity measurements were carried out. Lys-Ala-pNA was used as the substrate at a concentration of 1 mM at pH 5.5 (100 mM NaAc, 10 mM EDTA, 14 μg/mL aprotinin). Inhibitors were tested at one concentration, 5 μM, being the final concentration in the well. Inhibitors were pre-incubated with the enzyme for 15 minutes at 37° C., afterwards the substrate was added and the velocities of pNA release were measured kinetically at 405 nm for at least 10 minutes at 37° C. Measurements were done on the Infinite 200 (Tecan Group Ltd.) and the Magellan software was used to process the data.

Human recombinant PREP = target: T2, Human recombinant PREP (Homo sapiens, UniProt P48147); assay: PREP IC50 measurement (N-succinyl-Gly-Pro-AMC); conditions: for Selectivity index PREP: IC50(PREP)/IC50(FAP); for IC50: N-succinyl-Gly-Pro-AMC 250 μM, pH 7.4
T2 construct: made in house; host or cells: E. coli BL21(DE3)
T2 sequence (P48147 1-710): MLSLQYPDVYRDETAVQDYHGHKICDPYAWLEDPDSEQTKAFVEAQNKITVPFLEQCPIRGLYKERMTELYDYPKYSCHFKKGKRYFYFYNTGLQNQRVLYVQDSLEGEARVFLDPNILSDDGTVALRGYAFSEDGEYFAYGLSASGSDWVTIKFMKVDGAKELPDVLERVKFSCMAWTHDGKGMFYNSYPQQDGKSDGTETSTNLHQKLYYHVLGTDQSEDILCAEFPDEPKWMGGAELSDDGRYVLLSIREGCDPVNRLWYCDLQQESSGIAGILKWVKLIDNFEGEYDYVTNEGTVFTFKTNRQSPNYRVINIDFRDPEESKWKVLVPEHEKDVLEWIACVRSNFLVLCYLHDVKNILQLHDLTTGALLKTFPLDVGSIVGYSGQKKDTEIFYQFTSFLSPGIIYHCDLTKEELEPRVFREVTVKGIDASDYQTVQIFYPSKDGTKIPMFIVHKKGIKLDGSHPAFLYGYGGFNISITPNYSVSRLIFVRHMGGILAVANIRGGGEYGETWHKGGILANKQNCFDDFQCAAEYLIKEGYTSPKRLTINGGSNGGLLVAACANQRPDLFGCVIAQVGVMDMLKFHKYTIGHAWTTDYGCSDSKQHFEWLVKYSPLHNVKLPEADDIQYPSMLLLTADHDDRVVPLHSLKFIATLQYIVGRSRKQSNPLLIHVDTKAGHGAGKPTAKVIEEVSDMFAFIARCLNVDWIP
From the text: as §1, §2

DPP4 = target: T3, DPP4 (Homo sapiens, UniProt P27487); assay: DPP4 IC50 measurement (Ala-Pro-pNA); conditions: for IC50: Ala-Pro-pNA 25 μM, pH 7.4; for Selectivity index DPP4: IC50(DPP4)/IC50(FAP)
T3 construct: DPP4 was purified from human seminal plasma; from tissue; host or cells: human seminal plasma
From the text: as §1, §2

human DPP8 = target: T4, human DPP8 (Homo sapiens, UniProt Q6V1X1); assay: DPP8 IC50 measurement (Ala-Pro-pNA); conditions: for IC50: Ala-Pro-pNA 300 μM, pH 7.4, read-out: DPP8 IC50; for Selectivity index DPP8: IC50(DPP8)/IC50(FAP)
T4 construct: made in house; host or cells: Sf9 insect cells (baculovirus)
From the text: as §1, §2

human DPP9 = target: T5, human DPP9 (Homo sapiens, UniProt Q86TI2); assay: DPP9 IC50 measurement (Ala-Pro-pNA); conditions: for IC50: Ala-Pro-pNA 150 μM, pH 7.4; for Selectivity index DPP9: IC50(DPP9)/IC50(FAP)
T5 construct: made in house; host or cells: Sf9 insect cells (baculovirus)
From the text: as §1, §2

T4 sequence (Q6V1X1 whole entry): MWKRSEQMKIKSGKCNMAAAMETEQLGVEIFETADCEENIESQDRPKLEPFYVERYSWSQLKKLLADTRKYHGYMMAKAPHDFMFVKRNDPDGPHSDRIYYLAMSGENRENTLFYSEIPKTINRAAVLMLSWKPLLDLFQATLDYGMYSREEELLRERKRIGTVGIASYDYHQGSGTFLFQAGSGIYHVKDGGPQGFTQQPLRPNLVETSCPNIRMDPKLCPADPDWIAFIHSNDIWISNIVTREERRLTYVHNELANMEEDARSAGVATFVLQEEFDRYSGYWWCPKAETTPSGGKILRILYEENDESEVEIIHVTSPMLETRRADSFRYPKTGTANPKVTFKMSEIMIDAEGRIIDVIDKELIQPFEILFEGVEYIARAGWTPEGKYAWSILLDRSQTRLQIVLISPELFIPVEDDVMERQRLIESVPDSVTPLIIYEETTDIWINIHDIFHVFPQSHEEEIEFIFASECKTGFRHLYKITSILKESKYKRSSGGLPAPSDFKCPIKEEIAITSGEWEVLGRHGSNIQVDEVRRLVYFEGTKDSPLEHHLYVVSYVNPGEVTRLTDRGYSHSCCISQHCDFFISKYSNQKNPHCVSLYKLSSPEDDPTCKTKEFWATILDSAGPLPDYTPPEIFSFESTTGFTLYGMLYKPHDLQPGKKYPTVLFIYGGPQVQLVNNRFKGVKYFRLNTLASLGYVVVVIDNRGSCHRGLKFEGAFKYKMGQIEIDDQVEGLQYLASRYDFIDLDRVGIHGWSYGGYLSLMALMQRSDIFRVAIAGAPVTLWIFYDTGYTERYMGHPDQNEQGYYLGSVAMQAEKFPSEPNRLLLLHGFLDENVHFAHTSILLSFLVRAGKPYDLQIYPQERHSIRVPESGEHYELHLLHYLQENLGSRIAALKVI
T3 sequence (P27487 whole entry): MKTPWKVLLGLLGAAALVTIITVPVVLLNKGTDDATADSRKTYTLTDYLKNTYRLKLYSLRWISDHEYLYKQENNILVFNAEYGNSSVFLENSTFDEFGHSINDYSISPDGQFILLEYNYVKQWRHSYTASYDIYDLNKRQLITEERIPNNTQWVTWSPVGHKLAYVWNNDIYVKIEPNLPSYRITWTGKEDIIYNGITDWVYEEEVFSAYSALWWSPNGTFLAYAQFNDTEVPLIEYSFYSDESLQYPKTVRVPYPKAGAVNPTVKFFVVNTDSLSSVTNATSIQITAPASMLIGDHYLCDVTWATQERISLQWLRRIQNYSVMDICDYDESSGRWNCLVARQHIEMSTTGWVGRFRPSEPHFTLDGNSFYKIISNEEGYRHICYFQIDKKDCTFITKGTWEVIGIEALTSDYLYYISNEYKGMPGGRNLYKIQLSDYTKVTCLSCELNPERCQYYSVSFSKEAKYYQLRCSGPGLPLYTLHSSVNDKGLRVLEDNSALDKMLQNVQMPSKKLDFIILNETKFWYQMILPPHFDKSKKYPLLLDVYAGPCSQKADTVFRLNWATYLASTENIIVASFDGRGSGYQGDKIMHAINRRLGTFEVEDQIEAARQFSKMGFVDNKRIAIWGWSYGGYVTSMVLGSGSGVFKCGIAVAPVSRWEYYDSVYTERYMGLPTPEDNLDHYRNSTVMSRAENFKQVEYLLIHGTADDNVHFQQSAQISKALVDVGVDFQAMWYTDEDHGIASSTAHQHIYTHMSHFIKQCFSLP
T5 sequence (Q86TI2 whole entry): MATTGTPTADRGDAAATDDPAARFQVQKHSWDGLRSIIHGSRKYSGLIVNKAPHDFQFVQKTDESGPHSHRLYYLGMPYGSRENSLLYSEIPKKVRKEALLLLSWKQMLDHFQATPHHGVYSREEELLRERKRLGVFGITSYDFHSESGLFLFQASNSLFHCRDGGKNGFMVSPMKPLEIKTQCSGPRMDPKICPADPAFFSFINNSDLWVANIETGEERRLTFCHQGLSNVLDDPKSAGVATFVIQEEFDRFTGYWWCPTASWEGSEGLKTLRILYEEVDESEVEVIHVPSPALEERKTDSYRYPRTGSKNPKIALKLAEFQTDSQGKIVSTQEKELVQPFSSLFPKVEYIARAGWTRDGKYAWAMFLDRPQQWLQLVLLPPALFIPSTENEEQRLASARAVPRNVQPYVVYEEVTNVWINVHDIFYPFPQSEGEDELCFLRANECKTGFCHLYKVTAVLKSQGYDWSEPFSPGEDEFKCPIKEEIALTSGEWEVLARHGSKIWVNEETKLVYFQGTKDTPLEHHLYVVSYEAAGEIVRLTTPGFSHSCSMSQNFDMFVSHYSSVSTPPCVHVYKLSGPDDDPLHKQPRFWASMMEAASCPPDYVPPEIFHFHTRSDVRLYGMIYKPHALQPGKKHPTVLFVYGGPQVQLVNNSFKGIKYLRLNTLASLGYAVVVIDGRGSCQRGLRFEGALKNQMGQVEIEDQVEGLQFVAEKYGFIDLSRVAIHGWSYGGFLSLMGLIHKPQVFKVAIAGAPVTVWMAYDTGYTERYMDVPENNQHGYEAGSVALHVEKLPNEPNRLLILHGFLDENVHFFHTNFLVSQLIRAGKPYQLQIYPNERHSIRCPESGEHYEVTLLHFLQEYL

SMILES	IC50 (human FAP)	Selectivity index PREP (Human recombinant PREP)	IC50 (Human recombinant PREP)	IC50 (DPP4)	Selectivity index DPP4 (DPP4)	IC50 (human DPP8)	Selectivity index DPP8 (human DPP8)	IC50 (human DPP9)	Selectivity index DPP9 (human DPP9)
C[N+](C)(CCF)CCOCCOc1ccc2nccc(C(=O)NCC(=O)N3CC(F)(F)C[C@H]3C#N)c2c1 [Compound 8, (S)-2-(2-((4-((2-(2-cyano-4,4-difluoropyrrolidin-1-yl)-2-oxoethyl)carbamoyl)quinolin-6-yl)oxy)ethoxy)-N-(2-fluoroethyl)-N,N-dimethylethan-1-aminium 4-methylbenzenesulfonate]	0.00942 ± 0.00344 µM	>1300	> 10 µM	> 10 µM	>1300	> 10 µM	>1300	> 10 µM	>1300
C[N+](C)(CF)CCOCCOCCOc1ccc2nccc(C(=O)NCC(=O)N3CC(F)(F)C[C@H]3C#N)c2c1 [Compound 10, (S)-2-(2-(2-((4-((2-(2-cyano-4,4-difluoropyrrolidin-1-yl)-2-oxoethyl)carbamoyl)quinolin-6-yl)oxy)ethoxy)ethoxy)-N-(fluoromethyl)-N,N-dimethylethan-1-aminium hexafluorophosphate(V)]	0.00046 ± 4e-05 µM	>2100	> 1 µM	> 1 µM	>2100	> 10 µM	>21000	> 10 µM	>21000
C[N+]1(CCCOc2ccc3nccc(C(=O)NCC(=O)N4CC(F)(F)C[C@H]4C#N)c3c2)CCN(C(=O)c2ccc(F)cc2)CC1 [Compound 14, (S)-1-(3-((4-((2-(2-cyano-4,4-difluoropyrrolidin-1-yl)-2-oxoethyl)carbamoyl)quinolin-6-yl)oxy)propyl)-4-(4-fluorobenzoyl)-1-methylpiperazin-1-ium]	0.00095 ± 0.0001 µM	>10000	> 10 µM	> 10 µM	>10000	> 10 µM	>10000	> 1 µM	>1000
